Experimental data published in patent US12458695B2, “Dosing regimens and related compositions and methods” (Apellis Pharmaceuticals, Inc., priority 2017, dated 2025).

Tests used:
complement activation = details: relative to compstatin amidated at the C-terminus; published data; cited from earlier work
[1] = test system: alternative pathway-mediated erythrocyte lysis; details: alternative pathway-mediated erythrocyte lysis assay (WO2004/026328); cited from earlier work
[2] = Phase 1 single and multiple ascending dose trial of nebulized CA28 in healthy volunteers; assay type: in vivo, human
Experimental: In the single ascending dose part of the trial, 16 subjects were enrolled in four cohorts of four subjects each.
Four subjects were enrolled in the first cohort of the multiple ascending dose part of the trial. These subjects were to receive 14 consecutive days of treatment with a 60 mg/day dose of the drug. […] The trial was paused and subsequently resumed, with subjects receiving 30 mg/day. […] The trial was then terminated.
Both subjects responded within hours to first-line antibiotic treatment, which is indicative of bacterial pathogenesis. In this trial, subjects were vaccinated against Neisseria meningitides and closely monitored for signs of infections. While the bacterial cultures were all negative, it is believed that Haemophilus influenzae or Streptococcus pneumoniae might have been implicated in the episodes of fever that were observed because C3 deficient individuals are known to be at increased risk of infection with Neisseria meningitidis, Haemophilus influenzae and Streptococcus pneumoniae. Vaccines against these three pathogens are available, and it is believed that the risk of infection can be addressed by vaccination, potentially with addition of prophylactic antibiotics (e.g., penicillin V).

[3] = Inhalation studies, single dose and 14 day repeated dose; details: cynomolgus monkey, in vivo, inhaled or intranasal; 14 day repeated dose; read-out: highest inhaled dose tested without drug-related findings
Experimental: Inhalation studies of single dose or repeated dosing were conducted in dog and cynomolgus monkey. […] These doses were 25 mg/kg/d in a 7 day repeated dose study in the dog, 80 mg/kg in a single dose study in the monkey, and 30 mg/kg/day in a 14 day repeated dose in the monkey.

| Compound | Activity over compstatin (complement activation) [xmore] | also measured |
| --- | --- | --- |
| Ac-ICV(1-Nal)QDWGAHRCT-COOH [Ac V4(1-Nal)/H9A-OH] | 30 | – |
| Ac-ICV(5-methyl-W)QDWGAHRCT-CONH2 [Ac-V4(5-MeW)/H9A] | 67 | – |
| CC[C@H](C)[C@H](N)C(=O)N[C@H]1CSSC[C@@H](C(=O)N[C@H](C(N)=O)[C@@H](C)O)NC(=O)[C@H](CCCN=C(N)N)NC(=O)[C@H](Cc2cnc[nH]2)NC(=O)[C@H](Cc2cnc[nH]2)NC(=O)CNC(=O)[C@H](Cc2c[nH]c3ccccc23)NC(=O)[C@H](CC(=O)O)NC(=O)[C@H](CCC(N)=O)NC(=O)[C@H](C(C)C)NC(=O)[C@H](C(C)C)NC1=O [Compstatin] | – | IC50 [1]: 12 µM |
| Ac-ICV(2-Igl)QDWGAHRCT-CONH2 [Ac-V42Igl/H9A] | 39 | – |
| Ac-ICVYQDWGAHRCT-CONH2 [Ac-V4Y/H9A] | 14 | – |
| Ac-ICVVQDWGHHRCT-CONH2 [Ac-compstatin] | 3 | – |
| Ac-ICV(5fW)QDWGAHRCT-CONH2 [Ac-V4(5fW)/H9A] | 31 | – |
| Ac-ICVWQDWGAHRCT-CONH2 [Ac-V4W/H9A] | 45 | – |
| Ac-ICV(Bta)QDWGAHRCT-COOH [Ac-V4(Bta)/H9A-OH] | 65 | – |
| Ac-ICV(Bpa)QDWGAHRCT-CONH2 [Ac-V4(Bpa)/H9A] | 86 | – |
| Ac-ICVDhtQDWGAHRCT-COOH [Ac-V4Dht/H9A-OH] | 5 | – |
| Ac-ICV(2-Nal)QDWGAHRCT-CONH2 [Ac-V4(2-Nal)/H9A] | 99 | – |
| Ac-ICV(Bpa)QDWGAHRCT-COOH [Ac-V4(Bpa)/H9A-OH] | 49 | – |
| H-GICV(6fW)QD(6fW)GAHRCTN-COOH (GICVXQDXGAHRCTN; not fully specified; 6-fluoro-Trp at V4 and W7; SITE 1 N-term H; MOD_RES 5 6-fluoro-L-tryptophan; MOD_RES 8 6-fluoro-L-tryptophan; SITE 15 C-term COOH) [+G/V4(6fW)/W7(6fW)H9A+N-OH] | 126 | – |
| Ac-ICVWQDWGAHRCdT-COOH [Ac-V4W/H9A/T13dT-OH] | 55 | – |
| Ac-ICV(2-Igl)QDWGAHRCT-COOH [Ac-V42Igl/H9A-OH] | 37 | – |
| CC[C@H](C)[C@H](NC(C)=O)C(=O)N[C@H]1CSSC[C@@H](C(=O)N[C@H](C(N)=O)[C@@H](C)O)NC(=O)[C@H](CCCNC(=N)N)NC(=O)[C@H](Cc2cnc[nH]2)NC(=O)[C@H](C)NC(=O)CNC(=O)[C@H](Cc2c[nH]c3ccccc23)NC(=O)[C@H](CC(=O)O)NC(=O)[C@H](CCC(N)=O)NC(=O)[C@H](Cc2cn(C)c3ccccc23)NC(=O)[C@H](C(C)C)NC1=O [CA28] | – | adverse event possibly related to pharmacology ([2]; 30 mg/day inhaled, after 10 days of treatment): Another subject developed signs and symptoms consistent with a potential bacterial infection; adverse event possibly related to pharmacology ([2]; 60 mg/day inhaled, following nine days of treatment): one subject developed signs and symptoms consistent with a potential bacterial infection; safety and tolerability ([2]; single inhaled dose 20, 60, 150 or 350 mg): well tolerated and no serious adverse events were reported; NOAEL at 336 h [3]: 30 mg/kg/day |
| Ac-ICV(2-Nal)QDWGAHRCT-COOH [Ac V4(2-Nal)/H9A-OH] | 38 | – |
| Ac-ICV(Bta)QDWGAHRCT-CONH2 [Ac-V4(Bta)/H9A] | 64 | – |
